{
  "source": "paper PMC3568987",
  "about": "(ACS medicinal chemistry letters, 2012)",
  "key": {"[1]": {"system": "rat hepatocytes", "assay": "Hepatocyte intrinsic clearance", "type": "in vitro ADME"}, "[2]": {"system": "human hepatocytes", "assay": "Hepatocyte intrinsic clearance", "type": "in vitro ADME"}},
  "data": [
    {"smiles": "CC#Cc1cncc(-c2cc(Cl)c([C@]3(C)CC(=O)N(C)C(=N)N3)s2)c1", "note": "[Compound 16]", "values": [
      {"measurement": "intrinsic clearance", "setting": "[1]", "result": 4.9, "unit": "μL.min^−1 ·10^6 cells"},
      {"measurement": "intrinsic clearance", "setting": "[2]", "result": 2.7, "unit": "μL.min^−1 ·10^6 cells"}
    ]}
  ]
}
